Reference: patent publication US20230340060A1, “NOVEL MEANS TO PREDICT AND MANIPULATE NMDA RECEPTOR-MEDIATED TOXICITY” (FundaMental Pharma GmbH, priority 2020, published 2023)

Columns and labels:
HEK293 cells = assay: Luminescent Cytotoxicity Assay (CytoTox-Glo) after transfection with GluN1 and GluN2A or GluN2B constructs; format: cell-based, human; conditions: for cell death: HEK293 cells; for susceptibility to NMDA receptor mediated toxicity: subject carrying the variant, based on HEK293 cell death, with GluN1, 48 h after transfection
Protocol: HEK293 Cell Culture HEK293 cells were cultured in Dulbecco's Modified Eagle Medium (DMEM, Gibco™, 41965-039) supplement with 10% Fetal Bovine Serum (FBS, Gibco™, 10270), 1% Sodium Pyruvate (Gibco™, 11360070), 1% MEM NEAA (Gibco™, 11140035) and 0.5% Penicillin-Streptomycin (P-S; Sigma, P0781) and Passage15-25 were used for experiments.
To test the cytotoxicity of compounds according to the present invention, HEK293 cells (70-80% confluent) were transfected 24 hours after plating with expression vectors for both GluN1 and GluN2A or GluN2B, respectively (1:1; 2 μg plasmids in total per 6-cm dishes) with Lipofectamine 2000 according to manufacturer's instructions. The relative number of dead cells in the population at the indicated time points after transfection was measured with the CytoTox-Glo™ Cytotoxicity assay (Promega, G9290) according to manufacturer's instruction with minor modification. Briefly, 10% of total medium were mixed with 10 μL AAF-amino luciferin to reach a final volume at 200 μL with water, the dead cell relative luminescence units (DRLU) was measured by GloMax (Promega) in a 96 well white bottom polystyrene microplate (Corning Costar®, 3912). After all the measurements, lysis reagents have been added to the cells and 10% of lysate was used for the total cell relative luminescence units (TRLU) measurement. Cell death was calculated by the following equations: […]
In order to investigate the role of GluN2A and GluN2B in NMDA receptor mediated toxicity, the inventors have built constructs and transfected the plasmids into HEK293 cells.
In a next step, the inventors tried to assess the importance of the isoleucine and other amino acid residues in the inventive sequence motif. The inventors have built constructs containing above-mentioned mutants and transfected the plasmids into HEK293 cells.
In view of the results obtained for the GluN2A and GluN2B mutants of the inventive sequence motif in example 3, the inventors further tested the impact of naturally occurring variations in said sequence motif in the human gene pool on susceptibility towards NMDA receptor mediated toxicity. The inventors have built constructs containing above-mentioned mutants selected from the SNP database from NCBI (for GRIN2A, https://www.ncbi.nlm.nih.gov/projects/SNP/snp_ref.cgi?showRare=on&chooseRs=coding&g o=Go&locusId=2903, and for GRIN2B, https://www.ncbi.nlm.nih.gov/projects/SNP/snp_ref.cgi?showRare=on&chooseRs=coding&g o=Go&locusId=2904) and transfected the plasmids into HEK293 cells.

[1] = test system: primary mouse hippocampal neurons; assay: Neuronal death assessment after rAAV-mediated expression of polypeptides; format: cell-based; conditions: rAAV infection on DIV3, fixed on DIV17, Hoechst staining, polypeptide fused to HA tag and GPI anchor
Protocol: Primary mouse hippocampal were prepared and maintained as known to the skilled person. Briefly, hippocampi from P0 C57Bl/6N mice were dissociated and plated at a density of […] in Growth Medium (GM), consisting of Neurobasal A medium (Gibco™, 10888022), 2% serum free B27™ Supplement (Gibco™, 17504044), 1% rat serum (Biowest, S2150), 0.5 mM L-Glutamine (Sigma, G7513) and 0.5% P-S. Cytosine P-D-arabinofuranoside (AraC; Sigma, C1768; 2.8 μM) was added on DIV3 to prevent the proliferation of glial cells. From DIV8, half of the medium was replaced by GM without Rat serum every 48 h until being used for experiments. […]
Neurons were fixed in 4% paraformaldehyde with 4% sucrose in PBS for 15 min followed with Hoechst staining. […] Cell death is analyzed by Cell Profiler and Cell Analyzer software.
In a next step, the inventors assessed whether the inventive sequence motif on its own is sufficient to induce NMDA receptor mediated toxicity. […] Neurons were fixed on DIV17, stained with Hoechst and cell death was quantified.

[2] = combined expression with GluN1, 48 h after transfection

| Substance | cell death (HEK293 cells; [2]) | susceptibility to NMDA receptor mediated toxicity (HEK293 cells) | further results |
| --- | --- | --- | --- |
| GluN2A (S869R): GluN2A with naturally occurring substitution S869R | also toxic | regular susceptibility |  |
| GluN2A-IAHA: GluN2A with substitutions I867A, I871A and H875A (SEQ ID NO:21) | at least reduced levels of toxicity |  |  |
| GluN2B-I2A2AH: GluN2B with substitutions I868A, I872A and A876H | essentially abrogated any toxic effect |  |  |
| GluN2B: wild type rat GluN2B (UniProtKB-Q00960) comprising canonical sequence SEQ ID NO:7 | induced cell death | regular susceptibility |  |
| GluN2B-12A2: GluN2B with substitutions I868A and I872A (SEQ ID NO:21) | essentially abrogated any toxic effect |  |  |
| GluN2A-I2A2: GluN2A with substitutions I867A and I871A (SEQ ID NO:2) | still show some toxic properties |  | cell death (HEK293 cells; combined expression with GluN1, 48 h after transfection, listed as GluN2A SEQ ID NO:2): at least reduced levels of toxicity |
| GluN2A (I876N): GluN2A with naturally occurring substitution I876N | also toxic | increased susceptibility | susceptibility to NMDA receptor mediated toxicity (HEK293 cells; listed as SEQ ID NO:6): significantly increased susceptibility |
| GluN2A-13A3: GluN2A with substitutions I863A, I867A and I871A (SEQ ID NO:3) | still show some toxic properties |  | cell death (HEK293 cells; combined expression with GluN1, 48 h after transfection, listed as GluN2A SEQ ID NO:3): at least reduced levels of toxicity |
| GluN2B (H873R): GluN2B with naturally occurring substitution H873R |  | decreased susceptibility |  |
| GluN1: wild type rat GluN1 (UniProtKB-P35439), control when expressed alone |  |  | cell death (HEK293 cells; transfected alone (control), 48 h after transfection): neither GFP nor GluN1 alone (both serving as controls) could induce cell death |
| GluN2A: wild type rat GluN2A (UniProtKB-Q00959) comprising canonical sequence SEQ ID NO:1 | induced cell death | regular susceptibility |  |
| GluN2A (I867M): GluN2A with naturally occurring substitution I867M | also toxic | increased susceptibility |  |
| SEQ ID NO:10: mutant GluN2A derived polypeptide comprising SEQ ID NO:2, fused to HA tag and GPI anchor (TGVCSDRPGLLFSISRGAYSCAHGVHIEEKKKS; GluN2A core motif mutated with 2 Ile residues mutated to Ala residues plus flanking regions) |  |  | cell death [1]: not able to induce cell death; cell death ([1]; listed as SEQ ID NO: 10): greatly reduces the cell death levels to approx. the levels of untransfected control |
